Like-named read-outs stand apart in the source and are kept apart here.

A word on the AC50: it is the concentration at which the activity in the assay is half-maximal.

For the assay, the target named is PKM2 (Homo sapiens, UniProt P14618). The experiment in a line: PKM2 Biochemical Assay. To be noted: for Max. Resp.: % maximum response in a biochemical assay as compared with Fructose 1,6-bisphosphate.
PKM2, sequence (P14618 whole entry): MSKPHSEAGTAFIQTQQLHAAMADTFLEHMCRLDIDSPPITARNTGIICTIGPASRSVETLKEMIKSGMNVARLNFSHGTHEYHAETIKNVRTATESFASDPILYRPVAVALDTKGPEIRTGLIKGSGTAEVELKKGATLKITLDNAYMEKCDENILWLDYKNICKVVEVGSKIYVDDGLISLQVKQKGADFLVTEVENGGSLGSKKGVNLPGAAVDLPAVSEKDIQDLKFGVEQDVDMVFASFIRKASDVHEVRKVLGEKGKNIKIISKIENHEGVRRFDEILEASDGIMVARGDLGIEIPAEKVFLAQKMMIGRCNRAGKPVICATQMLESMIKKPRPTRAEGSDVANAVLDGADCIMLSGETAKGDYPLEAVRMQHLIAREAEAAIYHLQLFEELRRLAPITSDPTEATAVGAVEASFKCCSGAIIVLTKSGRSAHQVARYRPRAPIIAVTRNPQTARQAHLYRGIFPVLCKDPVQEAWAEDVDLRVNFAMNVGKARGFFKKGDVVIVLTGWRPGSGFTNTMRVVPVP

With `CC[C@](C)(N)C(=O)Oc1ccc(CN(CC2CCC2)C(=O)c2cc(Cl)n[nH]2)c(F)c1` [Example 115, (S)-4-((3-chloro-N-(cyclobutylmethyl)-1H-pyrazole-5-carboxamido)methyl)-3-fluorophenyl 2-amino-2-methylbutanoate], the “Max. Resp.” value is 104%.

On to `CCN(CC)CCN(Cc1cccc2[nH]cnc12)C(=O)c1cc(C(F)(F)F)n[nH]1` [Example 160, N-((1H-benzo[d]imidazol-4-yl)methyl)-N-(2-(diethylamino)ethyl)-3-(trifluoromethyl)-1H-pyrazole-5-carboxamide], for which the “Max. Resp.” value is 100%.

Turning to `CCN(CC)CCCN(Cc1ccccc1Cl)C(=O)c1cc(C(F)(F)F)n[nH]1` [Example 185, N-(2-chlorobenzyl)-N-(3-(diethylamino)propyl)-3-(trifluoromethyl)-1H-pyrazole-5-carboxamide], the “Max. Resp.” value was 53%.

On to `O=C(c1cc(Br)n[nH]1)N(Cc1ccc(O)cc1F)CC1CNC1` [Example 11, N-(azetidin-3-ylmethyl)-3-bromo-N-(2-fluoro-4-hydroxybenzyl)-1H-pyrazole-5-carboxamide], for which the “Max. Resp.” value came out at 61%.

On to `CC(c1ccccc1)N(CC1CCC1)C(=O)c1cc(C(F)(F)F)n[nH]1` (stereo not shown) [Example 5, 3-trifluoromethyl-N-(cyclobutylmethyl)-N-(1-phenylethyl)-1H-pyrazole-5-carboxamide], for which the “Max. Resp.” value is 106%.

With `CCN(CC)CCN(Cc1cc(N)ccc1Cl)C(=O)c1cc(C(F)(F)F)n[nH]1` [Example 183, N-(5-amino-2-chlorobenzyl)-N-(2-(diethylamino)ethyl)-3-(trifluoromethyl)-1H-pyrazole-5-carboxamide], the “Max. Resp.” value was determined as 100%.

Regarding `O=C(c1cc(C(F)(F)F)n[nH]1)N(Cc1cccc2c1CCN2)CC1CCC1` [Example 14, N-(cyclobutylmethyl)-N-(indolin-4-ylmethyl)-3-(trifluoromethyl)-1H-pyrazole-5-carboxamide], the “Max. Resp.” value was determined as 81%. Under “read-out: PKM2 AC50, 2 nM PKM2, 75 μM ADP, 15 μM PEP, Kinase Glo”, the AC50 is 1.7 µM.

For the compound `O=C(c1cc(C(F)(F)F)n[nH]1)N(Cc1ccccc1Cl)CC1COC1` [Example 27], the “Max. Resp.” value was found to be 47%.

Regarding `CN1CCC(CN(Cc2ccccc2F)C(=O)c2cc(C(F)(F)F)n[nH]2)CC1` [Example 100], the “Max. Resp.” value is reported as 29%.

In the case of `O=C(c1cc(C(F)(F)F)n[nH]1)N(CCC1CCS(=O)(=O)C1)Cc1ccc(O)cc1F` (stereo not shown) [Example 76], the “Max. Resp.” value came out at 93%.

On to `O=C(c1cc(C(F)(F)F)n[nH]1)N(CCN1CCC(F)(F)CC1)Cc1ccccc1Cl` [Example 205, N-(2-chlorobenzyl)-3-(trifluoromethyl)-N-(2-(4,4-difluoropiperidin-1-yl)ethyl)-1H-pyrazole-5-carboxamide], for which the “Max. Resp.” value was 100%.

In the case of `O=C(c1cc(C(F)(F)F)n[nH]1)N(CCC1CCOC1)Cc1c(F)cccc1F` (stereo not shown) [Example 40], the “Max. Resp.” value was determined as 114%.

Take `CO[C@H]1CC[C@H](N(Cc2ncccc2Cl)C(=O)c2cc(C(F)(F)F)n[nH]2)CC1` [Example 56]: the “Max. Resp.” value turned out to be 48%.

Regarding `O=C(c1cc(C(F)(F)F)n[nH]1)N(CCN1CCS(=O)(=O)CC1)Cc1c(Cl)cccc1Cl` [Example 110], the “Max. Resp.” value was determined as 84%.

Consider `O=C(c1cc(Br)n[nH]1)N(Cc1cccc2[nH]c(=O)sc12)CC1CCC1` [Example 10, 3-bromo-N-(cyclobutylmethyl)-N-((2-oxo-2,3-dihydrobenzo[d]thiazol-7-yl)methyl)-1H-pyrazole-5-carboxamide], for which the “Max. Resp.” value is listed as 127%.

In the case of `O=C(c1cc(C(F)(F)F)n[nH]1)N(CCC1CC[S+]([O-])CC1)Cc1ccccc1Cl` (stereo not shown) [Example 74, N-(2-CHLOROBENZYL)-N-(2-(1-OXIDOTETRAHYDRO-2H-THIOPYRAN-4-YL)ETHYL)-3-(TRIFLUOROMETHYL)-1H-PYRAZOLE-5-CARBOXAMIDE], the “Max. Resp.” value amounted to 95%.

Consider `CCO[C@H]1CC[C@H](N(Cc2ccccc2F)C(=O)c2cc(C(F)(F)F)n[nH]2)CC1` [Example 55], for which the “Max. Resp.” value is listed as 101%.

Turning to `COCCN(Cc1ccc(O)cc1F)C(=O)c1cc(C(F)(F)F)n[nH]1` [Example 142, N-(2-fluoro-4-hydroxybenzyl)-3-(trifluoromethyl)-N-(2-methoxyethyl)-1H-pyrazole-5-carboxamide], the “Max. Resp.” value amounted to 100%.

For the compound `O=C(c1cc(C(F)(F)F)n[nH]1)N(CCC1CCS(=O)(=O)C1)Cc1cc(F)cc(F)c1` (stereo not shown) [Example 69], the “Max. Resp.” value is given as 74%.

In the case of `Nc1cccc(Cl)c1CN(CCN1CCCC(F)CC1)C(=O)c1cc(C(F)(F)F)n[nH]1` (stereo not shown) [Example 243, N-(2-amino-6-chlorobenzyl)-N-(2-(4-fluoroazepan-1-yl)ethyl)-3-(trifluoromethyl)-1H-pyrazole-5-carboxamide], the “Max. Resp.” value is recorded as 100%.

With `O=C(c1cc(Br)n[nH]1)N(CCC1CCSCC1)Cc1ccccc1F` [Example 82], the “Max. Resp.” value is listed as 74%.

With `O=C(c1cc(C(F)(F)F)n[nH]1)N(CCC1CCOC1)Cc1ccccc1F` (stereo not shown) [Example 26], the “Max. Resp.” value was found to be 99%.

Regarding `CCN1CCC(CCN(Cc2c(Cl)cccc2Cl)C(=O)c2cc(C(F)(F)F)n[nH]2)CC1` [Example 105], the “Max. Resp.” value is 71%.

As to `CO[C@H]1CC[C@H](N(Cc2c(F)cccc2F)C(=O)c2cc(C(F)(F)F)n[nH]2)CC1` [Example 49], the “Max. Resp.” value turned out to be 122%.

As for `NCCN(Cc1ccc(O)cc1F)C(=O)c1cc(C(F)(F)F)n[nH]1` [Example 133, N-(2-fluoro-4-hydroxybenzyl)-N-(2-aminoethyl)-3-(trifluoromethyl)-1H-pyrazole-5-carboxamide], the “Max. Resp.” value is listed as 100%.

On to `CCN(CC)CCN(Cc1ccccc1Cl)C(=O)c1cc(C(F)(F)F)n[nH]1` [Example 159, N-(2-chlorobenzyl)-N-(2-(diethylamino)ethyl)-3-(trifluoromethyl)-1H-pyrazole-5-carboxamide], for which the “Max. Resp.” value came to 100%.

For the compound `COCCCN(Cc1ccccc1Cl)C(=O)c1cc(C(F)(F)F)n[nH]1` [Example 29], the AC50 was determined as 4.64 µM and the “Max. Resp.” value is on record as 87%.

Regarding `CCCC(C)N(Cc1ccccc1)C(=O)c1cc(C(F)(F)F)n[nH]1` (stereo not shown) [Example 16], the “Max. Resp.” value is recorded as 22%.

Consider `O=C(c1cc(C(F)(F)F)n[nH]1)N(CCN1CCCC1)Cc1ccc(Cl)cc1Cl` [Example 165, N-(2,4-dichlorobenzyl)-3-(trifluoromethyl)-N-(2-(pyrrolidin-1-yl)ethyl)-1H-pyrazole-5-carboxamide], for which the “Max. Resp.” value came out at 50%.

In the case of `Nc1cccc(Cl)c1CN(CCN1CCS(=O)(=O)CC1)C(=O)c1cc(C(F)(F)F)n[nH]1` [Example 224, N-(2-amino-6-chlorobenzyl)-N-(2-(4-dioxothiomorpholino)ethyl)-3-(trifluoromethyl)-1H-pyrazole-5-carboxamide], the “Max. Resp.” value was 100%.

On to `O=C(c1cc(C(F)(F)F)n[nH]1)N(Cc1ccccc1F)CC1CCS(=O)(=O)CC1` [Example 71], for which the “Max. Resp.” value is 71%.

On to `Nc1cccc(Cl)c1CN(CCN1CC[C@H](F)C1)C(=O)c1cc(C(F)(F)F)n[nH]1` [Example 241, N-(2-amino-6-chlorobenzyl)-3-(trifluoromethyl)-N-(2-((S)-3-fluoropyrrolidin-1-yl)ethyl)-1H-pyrazole-5-carboxamide], for which the “Max. Resp.” value is reported as 100%.

As to `CCN1CCC(N(Cc2ccccc2F)C(=O)c2cc(C(F)(F)F)n[nH]2)C1` (stereo not shown) [Example 152, N-(2-fluorobenzyl)-N-(1-ethylpyrrolidin-3-yl)-3-(trifluoromethyl)-1H-pyrazole-5-carboxamide], the “Max. Resp.” value amounted to 68%.

`O=C(c1cc(C(F)(F)F)n[nH]1)N(CCN1CCCC1)Cc1ccccc1Cl` [Example 162, N-(2-chlorobenzyl)-3-(trifluoromethyl)-N-(2-(pyrrolidin-1-yl)ethyl)-1H-pyrazole-5-carboxamide]: the “Max. Resp.” value turned out to be 100%.

Take `O=C(c1cc(C(F)(F)F)n[nH]1)N(CCN1CCCC1)Cc1c(Cl)cccc1Cl` [Example 178, N-(2,6-dichlorobenzyl)-3-(trifluoromethyl)-N-(2-(pyrrolidin-1-yl)ethyl)-1H-pyrazole-5-carboxamide]: the “Max. Resp.” value worked out at 100%.

As to `O=C(c1cc(C(F)(F)F)n[nH]1)N(CCC1CCS(=O)(=O)C1)Cc1cc(F)ccc1F` (stereo not shown) [Example 70], the “Max. Resp.” value is on record as 91%.

For `O=C(c1cc(C(F)(F)F)n[nH]1)N(CCC1CCSCC1)Cc1ccc(O)cc1F` [Example 86], the “Max. Resp.” value was 98%.

On to `CCN(CC)CCN(Cc1ccccc1C(C)C)C(=O)c1cc(C(F)(F)F)n[nH]1` [Example 184, N-(2-isopropylbenzyl)-N-(2-(diethylamino)ethyl)-3-(trifluoromethyl)-1H-pyrazole-5-carboxamide], for which the “Max. Resp.” value came to 85%.

`COCCCN(Cc1ccccc1F)C(=O)c1cc(C(F)(F)F)n[nH]1` [Example 30]: the AC50 came to 9.77 µM and the “Max. Resp.” value was determined as 72%.

As to `O=C(c1cc(C(F)(F)F)n[nH]1)N(CCN1CCCC1)Cc1ccccc1F` [Example 158, N-(2-fluorobenzyl)-3-(trifluoromethyl)-N-(2-(pyrrolidin-1-yl)ethyl)-1H-pyrazole-5-carboxamide], the “Max. Resp.” value turned out to be 100%.

As for `O=C(c1cc(Cl)n[nH]1)N(Cc1cccc2[nH]cnc12)CC1CCC1` [Example 119, N-((1H-benzo[d]imidazol-4-yl)methyl)-3-chloro-N-(cyclobutylmethyl)-1H-pyrazole-5-carboxamide], the “Max. Resp.” value amounted to 100%.

For the compound `O=C(c1cc(C(F)(F)F)n[nH]1)N(CCN1CCCC(O)C1)Cc1ccccc1Cl` (stereo not shown) [Example 220, N-(2-chlorobenzyl)-3-(trifluoromethyl)-N-(2-(3-hydroxypiperidin-1-yl)ethyl)-1H-pyrazole-5-carboxamide], the “Max. Resp.” value is 100%.

As for `O=C(c1cc(C(F)(F)F)n[nH]1)N(CCN1CCCCCC1)Cc1ccc(O)cc1Cl` [Example 194, N-(2-chloro-4-hydroxybenzyl)-N-(2-(azepan-1-yl)ethyl)-3-(trifluoromethyl)-1H-pyrazole-5-carboxamide], the “Max. Resp.” value turned out to be 100%.
